The test system of the assay is BDF1 mice, Lewis lung carcinoma iv, survival T/C. The assay can be described thus: NCI In Vivo Anticancer Drug Screen. Data for tumor model Lewis Lung Carcinoma (intravenous) in B6D2F1 (BDF1) mice. Particulars: endpoint: median survival time, higher = longer survival. The procedure: The antitumor activity of compounds was measured in mice bearing transplantable tumors. Survival or tumor size were measured and the results are expressed as the measurement made in the treated group (T) divided by the measurement made in the vehicle treated control group (C). The tumor model used in this assay is Lewis Lung Carcinoma (intravenous) in B6D2F1 (BDF1) mice

Setting [1] is: dose: 12.5 mg/kg/injection, schedule: Q01DX009 (ip), vehicle: saline.
The mark [2] stands for this setting: dose: 25.0 mg/kg/injection, schedule: Q01DX009 (ip), vehicle: saline.
Setting [3] is: dose: 50.0 mg/kg/injection, schedule: Q01DX009 (ip), vehicle: saline.
The mark [4] stands for this setting: dose: 100.0 mg/kg/injection, schedule: Q01DX009 (ip), vehicle: saline.
[5] abbreviates: dose: 12.5 mg/kg/injection, schedule: Q01DX009 (ip), vehicle: saline with Tween-80.
Where [6] appears, read: dose: 25.0 mg/kg/injection, schedule: Q01DX009 (ip), vehicle: saline with Tween-80.
[7] abbreviates: dose: 50.0 mg/kg/injection, schedule: Q01DX009 (ip), vehicle: saline with Tween-80.
The mark [8] stands for this setting: dose: 100.0 mg/kg/injection, schedule: Q01DX009 (ip), vehicle: saline with Tween-80.
The mark [9] stands for this setting: dose: 200.0 mg/kg/injection, schedule: Q01DX009 (ip), vehicle: saline with Tween-80.
Setting [10] is: dose: 400.0 mg/kg/injection, schedule: Q01DX009 (ip), vehicle: saline with Tween-80.
The mark [11] stands for this setting: dose: 12.5 mg/kg/injection, schedule: Q01DX009 (ip), vehicle: water.
[12] abbreviates: dose: 25.0 mg/kg/injection, schedule: Q01DX009 (ip), vehicle: water.
[13] abbreviates: dose: 50.0 mg/kg/injection, schedule: Q01DX009 (ip), vehicle: water.
The mark [14] stands for this setting: dose: 100.0 mg/kg/injection, schedule: Q01DX009 (ip), vehicle: water.
The mark [15] stands for this setting: dose: 200.0 mg/kg/injection, schedule: Q01DX009 (ip), vehicle: water.
Setting [16] is: dose: 12.5 mg/kg/injection, schedule: Q01DX009 (ip), vehicle: Klucel (hydroxypropylcellulose) (HPC).
Where [17] appears, read: dose: 25.0 mg/kg/injection, schedule: Q01DX009 (ip), vehicle: Klucel (hydroxypropylcellulose) (HPC).
Setting [18] is: dose: 50.0 mg/kg/injection, schedule: Q01DX009 (ip), vehicle: Klucel (hydroxypropylcellulose) (HPC).
Setting [19] is: dose: 100.0 mg/kg/injection, schedule: Q01DX009 (ip), vehicle: Klucel (hydroxypropylcellulose) (HPC).
Setting [20] is: dose: 1.0 mg/kg/injection, schedule: Q01DX009 (ip), vehicle: saline.
Where [21] appears, read: dose: 2.0 mg/kg/injection, schedule: Q01DX009 (ip), vehicle: saline.

Structures are written as SMILES. Values joined by “and” are separate entries in the source; they are usually repeats but may differ in a detail not shown here. Identical values can stand only once. Inconclusive results and toxic doses are left out.

As for `O=P1(NCCCl)OCCCN1CCCl` (stereo unspecified), the T/C under setting [1] is 114 % of control; the T/C under setting [2] was 112 % of control; the T/C under setting [3] is 163 % of control; the T/C under setting [4] is 305 % of control; the T/C (dose: 108.0 mg/kg/injection, schedule: Q01DX001 (ip), vehicle: water) was 112 % of control; the T/C (dose: 190.0 mg/kg/injection, schedule: Q01DX001 (ip), vehicle: saline) was 283 % of control. For the same molecule, the T/C reads like this: (dose: 289.0 mg/kg/injection, schedule: Q01DX001 (ip), vehicle: saline) 283 % of control; (dose: 431.0 mg/kg/injection, schedule: Q01DX001 (ip), vehicle: saline) 212 % of control; (dose: 500.0 mg/kg/injection, schedule: Q01DX001 (ip), vehicle: water) 91 % of control.
In the case of `CC1(C)OC1CS(=O)c1ccccc1` (stereo unspecified), the T/C runs as follows: under setting [5], 105 % of control; under setting [6], 99 % of control; under setting [7], 91 % of control; under setting [8], 96 % of control; under setting [9], 95 % of control; under setting [10], 114 % of control.
Regarding `CC/C(=C(/CC)c1ccc(O)cc1)c1ccc(O)cc1`, the T/C under setting [11] was 123 % of control; the T/C under setting [12] was 102 % of control; the T/C under setting [13] was 102 % of control; the T/C under setting [14] was 106 % of control; the T/C under setting [15] was 120 % of control.
As for `CS(C)=O`, the T/C is, setting by setting: (dose: 1.5 grams/kg/injection, schedule: Q01DX009 (ip), vehicle: saline) 98 % of control; (dose: 3.0 grams/kg/injection, schedule: Q01DX009 (ip), vehicle: saline) 96 % of control; (dose: 6.0 grams/kg/injection, schedule: Q01DX009 (ip), vehicle: saline) 96 % of control.
Take `COc1ccc2nc3cc(Cl)ccc3c(NCCNCCNCCNc3c4ccc(Cl)cc4nc4ccc(OC)cc34)c2c1`: the T/C (dose: 3.12 mg/kg/injection, schedule: Q01DX009 (ip), vehicle: Klucel (hydroxypropylcellulose) (HPC)) is 99 % of control; the T/C (dose: 6.25 mg/kg/injection, schedule: Q01DX009 (ip), vehicle: Klucel (hydroxypropylcellulose) (HPC)) was 103 % of control; the T/C under setting [16] was 89 % of control; the T/C under setting [17] was 97 % of control.
On to `CC(C)(C)C1CCCCC1`, for which the T/C by setting is: under setting [16], 94 % of control; under setting [17], 98 % of control; under setting [18], 95 % of control; under setting [19], 102 % of control; (dose: 200.0 mg/kg/injection, schedule: Q01DX009 (ip), vehicle: Klucel (hydroxypropylcellulose) (HPC)) 95 % of control.
Turning to `C=CC(=O)NCNC(=O)C=C`, the T/C was 90 % of control (dose: 6.25 mg/kg/injection, schedule: Q01DX009 (ip), vehicle: saline); 102 % of control and 113 % of control under setting [1]; 98 % of control and 104 % of control under setting [2]; 97 % of control and 98 % of control under setting [3]; 101 % of control and 110 % of control under setting [4].
As to `Nc1ncnc2c1ncn2C1OC(COP(=O)(O)O)C(O)C1O` (stereo unspecified), the T/C is 104 % of control under setting [11]; 112 % of control under setting [12]; 100 % of control under setting [13]; 97 % of control under setting [4]; 103 % of control under setting [14]; 118 % of control (dose: 200.0 mg/kg/injection, schedule: Q01DX009 (ip), vehicle: saline). Also, the T/C was 100 % of control under setting [15]; 96 % of control (dose: 400.0 mg/kg/injection, schedule: Q01DX009 (ip), vehicle: saline); 108 % of control (dose: 800.0 mg/kg/injection, schedule: Q01DX009 (ip), vehicle: saline).
With `C=C1C(C)C2C(Cc3ccccc3)NC(=O)C23C(OC(C)=O)/C=C/C(C)(O)CC(C)C/C=C/C3C1O` (stereo unspecified), the T/C (dose: 0.37 mg/kg/injection, schedule: Q01DX009 (ip), vehicle: Klucel (hydroxypropylcellulose) (HPC)) was 93 % of control; the T/C (dose: 0.38 mg/kg/injection, schedule: Q01DX009 (ip), vehicle: Klucel (hydroxypropylcellulose) (HPC)) is 107 % of control; the T/C (dose: 0.75 mg/kg/injection, schedule: Q01DX009 (ip), vehicle: Klucel (hydroxypropylcellulose) (HPC)) is 102 % of control; the T/C (dose: 1.5 mg/kg/injection, schedule: Q01DX009 (ip), vehicle: Klucel (hydroxypropylcellulose) (HPC)) was 96 % of control and 105 % of control; the T/C (dose: 3.0 mg/kg/injection, schedule: Q01DX009 (ip), vehicle: Klucel (hydroxypropylcellulose) (HPC)) was 104 % of control and 106 % of control; the T/C (dose: 6.0 mg/kg/injection, schedule: Q01DX009 (ip), vehicle: Klucel (hydroxypropylcellulose) (HPC)) was 101 % of control and 110 % of control. Besides, where the note is “dose: 12.0 mg/kg/injection, schedule: Q01DX009 (ip), vehicle: Klucel (hydroxypropylcellulose) (HPC)”, the T/C was 109 % of control.
Take `COc1ccc(C(=O)c2no[n+]([O-])c2C(=O)c2ccc(OC)cc2)cc1`: the T/C under setting [5] is 104 % of control; the T/C under setting [6] was 102 % of control; the T/C under setting [7] was 95 % of control; the T/C under setting [8] was 98 % of control; the T/C under setting [9] is 100 % of control; the T/C under setting [10] is 111 % of control.
As to `CC1CN1C(=O)NCCCCCCNC(=O)N1CC1C` (stereo unspecified), the T/C (dose: 2.5 mg/kg/injection, schedule: Q01DX009 (ip), vehicle: saline + alcohol) is 111 % of control.
`NC1(C(=O)O)CCCc2ccc(N(CCCl)CCCl)cc21` (stereo unspecified): the T/C was 99 % of control (dose: 2.5 mg/kg/injection, schedule: Q01DX009 (ip), vehicle: saline); 98 % of control (dose: 5.0 mg/kg/injection, schedule: Q01DX009 (ip), vehicle: saline); 118 % of control (dose: 10.0 mg/kg/injection, schedule: Q01DX009 (ip), vehicle: saline with Tween-80); 109 % of control (dose: 10.0 mg/kg/injection, schedule: Q01DX009 (ip), vehicle: saline); 108 % of control (dose: 20.0 mg/kg/injection, schedule: Q01DX009 (ip), vehicle: saline with Tween-80).
In the case of `CC1(C)COCN1COC1CCCCC1`, the T/C is 112 % of control and 118 % of control under setting [1]; 98 % of control and 111 % of control under setting [2]; 97 % of control and 115 % of control under setting [3]; 95 % of control and 99 % of control under setting [4].
For `S=c1c2[nH]cnc2ncn1CCSC1=NC=NC2=NC=NC21` (stereo unspecified), the T/C under setting [1] was 115 % of control, the T/C under setting [2] is 100 % of control and the T/C under setting [3] is 96 % of control.
As to `CC(C)n1cnc2c(Cl)ncnc21`, the T/C was 113 % of control under setting [6] and 95 % of control under setting [7].
Regarding `CC1CN1CC(O)C(O)CN1CC1C` (stereo unspecified), the T/C (dose: 0.25 mg/kg/injection, schedule: Q01DX009 (ip), vehicle: saline) was 99 % of control; the T/C (dose: 0.5 mg/kg/injection, schedule: Q01DX009 (ip), vehicle: saline) is 111 % of control and 116 % of control; the T/C under setting [20] was 121 % of control and 116 % of control; the T/C under setting [21] was 123 % of control.
Regarding `C=C(C)C(=O)OCC1CO1` (stereo unspecified), the T/C by setting is: under setting [18], 88 % of control; under setting [19], 105 % of control.
With `O=C(NCCN1CC1)C(=O)NCCN1CC1`, the T/C (dose: 0.38 mg/kg/injection, schedule: Q01DX009 (ip), vehicle: saline) is 108 % of control; the T/C (dose: 0.75 mg/kg/injection, schedule: Q01DX009 (ip), vehicle: saline) is 110 % of control; the T/C (dose: 1.5 mg/kg/injection, schedule: Q01DX009 (ip), vehicle: saline) is 120 % of control; the T/C (dose: 3.0 mg/kg/injection, schedule: Q01DX009 (ip), vehicle: saline) was 101 % of control.
Turning to `Cc1c(N)nc([C@H](CC(N)=O)NC[C@H](N)C(N)=O)nc1C(=O)N[C@H](C(=O)N[C@H](C)[C@@H](O)CC(=O)N[C@H](C(=O)NC(O[C@@H]1O[C@@H](C)[C@@H](N)[C@@H](O)[C@H]1O)C(O)c1nc(-c2nc(C(=O)NCCCCN)cs2)cs1)[C@@H](C)O)[C@@H](O[C@@H]1O[C@@H](CO)[C@@H](O)[C@H](O)[C@@H]1O[C@H]1O[C@H](CO)[C@@H](O)[C@H](OC(N)=O)[C@@H]1O)c1c[nH]cn1` (stereo partly specified), the T/C by setting is: under setting [20], 109 % of control; under setting [21], 114 % of control.

The values are drawn from PubChem BioAssay AID274 (DTP/NCI, 2004).
